From patent US20100267561A1, “HERBICIDAL PYRIDAZINONE DERIVATIVES” (priority 2007, published 2010)
Like-named read-outs stand apart in the source and are kept apart here.

Experiments:
Assay type in all cases: in vivo
[1] = system: Russian thistle (Salsola iberica); assay: Test B pre-/postemergence plant response; details: Preemergence; for Russian Thistle plant response rating: scale 0 to 100
Summary of the method: (§1)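 Preemergence and postemergence (plants 2-18 cm, 1- to 4-leaf stage) applications used test chemicals in a non-phytotoxic solvent with surfactant. Plants were held in a greenhouse 13 to 15 days, then rated visually against controls on a 0-100 scale (0 no effect, 100 complete control).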

kochia (Kochia scoparia) = assay: Test B pre-/postemergence plant response; details: for Kochia plant response rating: postemergence, 0-100 scale; for Plant response rating, Kochia: Postemergence
Summary of the method: as §1

[2] = system: woolly cupgrass (Eriochloa villosa); assay: Test B pre-/postemergence plant response; details: for pest or weed control at 31 g/ha: 31 g ai/ha; for pest or weed control at 62 g/ha: 62 g ai/ha, 100 complete control
Summary of the method: as §1

[3] = system: cocklebur (Xanthium strumarium); assay: Test B pre-/postemergence plant response; details: for pest or weed control at 31 g/ha: 31 g ai/ha; for pest or weed control at 62 g/ha: 62 g ai/ha, 100 complete control
Summary of the method: as §1

[4] = system: eastern black (E.B.) nightshade (Solanum ptycanthum); assay: Test B pre-/postemergence plant response; details: Preemergence; for Nightshade, E. B. plant response rating: scale 0 to 100
Summary of the method: as §1

[5] = system: common ragweed (Ambrosia elation); assay: Test B pre-/postemergence plant response; details: for pest or weed control at 31 g/ha / pest or weed control at 62 g/ha: Ambrosia, read-out: Plant response rating, Ragweed; for pest or weed control at 31 g/ha: 31 g ai/ha; for pest or weed control at 62 g/ha: 62 g ai/ha, 100 complete control
Summary of the method: as §1

[6] = system: yellow nutsedge (Cyperus esculentus); assay: Test B pre-/postemergence plant response; details: for pest or weed control at 31 g/ha / pest or weed control at 62 g/ha: Cyperus, read-out: Plant response rating, Nutsedge, Yellow; for pest or weed control at 31 g/ha: 31 g ai/ha; for pest or weed control at 62 g/ha: 62 g ai/ha, 100 complete control
Summary of the method: as §1

soybean (Glycine max) = assay: Test B pre-/postemergence plant response; details: for plant injury at 31 g/ha / plant injury at 62 g/ha: Glycine max, read-out: Plant response rating, Soybean; for plant injury at 31 g/ha: 31 g ai/ha; for plant injury at 62 g/ha: 62 g ai/ha, 100 complete control
Summary of the method: as §1

[7] = system: pigweed (Amaranthus retroflexus); assay: Test B pre-/postemergence plant response; details: for pest or weed control at 31 g/ha / pest or weed control at 62 g/ha: Amaranthus retroflexus, read-out: Plant response rating, Pigweed; for pest or weed control at 31 g/ha: 31 g ai/ha; for pest or weed control at 62 g/ha: 62 g ai/ha, 100 complete control
Summary of the method: as §1

[8] = system: Italian ryegrass (Lolium multiflorum); assay: Test B pre-/postemergence plant response; details: for pest or weed control at 31 g/ha / pest or weed control at 62 g/ha: Lolium multiflorum, read-out: Plant response rating, Ryegrass, Italian; for pest or weed control at 31 g/ha: 31 g ai/ha; for pest or weed control at 62 g/ha: 62 g ai/ha, 100 complete control
Summary of the method: as §1

[9] = system: goosegrass (Eleusine indica); assay: Test B pre-/postemergence plant response; details: for pest or weed control at 31 g/ha / pest or weed control at 62 g/ha: Eleusine indica, read-out: Plant response rating, Goosegrass; for pest or weed control at 31 g/ha: 31 g ai/ha; for pest or weed control at 62 g/ha: 62 g ai/ha, 100 complete control
Summary of the method: as §1

[10] = system: wheat (Triticum aestivum); assay: Test A pre-/postemergence plant response; details: Triticum aestivum, 240 h, read-out: Plant response rating, Wheat; for plant injury at 31 g/ha: 31 g ai/ha; for plant injury at 125 g/ha: 125 g ai/ha
Summary of the method: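 Both pre- and postemergence treatment given concurrently; postemergence seedlings measured 2–10 cm at the one- to two-leaf stage. Visual injury, 0–100 scale versus untreated, at ~10 days.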

[11] = 8 g ai/ha, postemergence, 0-100 scale
[12] = Preemergence, 8 g ai/ha, scale 0 to 100
[13] = Preemergence, 16 g ai/ha, scale 0 to 100
[14] = 16 g ai/ha, postemergence, 0-100 scale
[15] = post-emergence, Postemergence, scale 0 to 100
[16] = post-emergence, Postemergence, scale 0 to 100, 0 no effect
[17] = pre-emergence, Preemergence, scale 0 to 100 (0 no effect, 100 complete control)
[18] = pre-emergence, Preemergence, 0 to 100 scale, 0 no effect

Cc1nn(C)c(=O)c(-n2nc(-c3ccc(C(F)(F)F)cc3)cc2C)c1O [Compound 75, 5-hydroxy-2,6-dimethyl-4-[5-methyl-3-[4-(trifluoromethyl)phenyl]-1H-pyrazol-1-yl]-3(2H)-pyridazinone]
70%: plant injury at 125 g/ha ([10]; post-emergence, Postemergence, 0 to 100 scale, 0 no effect, 100 complete control)
65%: pest or weed control at 16 g/ha ([2]; Eriochloa villosa, post-emergence, Postemergence, 16 g ai/ha, scale 0 to 100, read-out: Plant response rating, Cupgrass, Woolly) | pest or weed control at 31 g/ha ([2]; Eriochloa villosa, post-emergence, Postemergence, scale 0 to 100, read-out: Plant response rating, Cupgrass, Woolly) | pest or weed control at 31 g/ha ([2]; Eriochloa villosa, pre-emergence, Preemergence, scale 0 to 100 (0 no effect, 100 complete control), read-out: Plant response rating, Cupgrass, Woolly)
90%: pest or weed control at 31 g/ha [9, 17]
30: Ryegrass, Italian plant response rating [8, 11] | Ryegrass, Italian plant response rating [8, 13] | Goosegrass plant response rating [9, 11]
0%: pest or weed control at 16 g/ha ([3]; Xanthium strumarium, post-emergence, Postemergence, 16 g ai/ha, scale 0 to 100, read-out: Plant response rating, Cocklebur) | pest or weed control at 31 g/ha ([3]; Xanthium strumarium, post-emergence, Postemergence, scale 0 to 100, read-out: Plant response rating, Cocklebur) | pest or weed control at 62 g/ha ([3]; Xanthium strumarium, post-emergence, Postemergence, scale 0 to 100, 0 no effect, read-out: Plant response rating, Cocklebur) | pest or weed control at 31 g/ha ([3]; Xanthium strumarium, pre-emergence, Preemergence, scale 0 to 100 (0 no effect, 100 complete control), read-out: Plant response rating, Cocklebur) | pest or weed control at 62 g/ha ([3]; Xanthium strumarium, pre-emergence, Preemergence, 0 to 100 scale, 0 no effect, read-out: Plant response rating, Cocklebur) | pest or weed control at 31 g/ha ([4]; Solanum, pre-emergence, 31 g ai/ha, scale 0 to 100 (0 no effect, 100 complete control), read-out: Plant response rating, Nightshade, E. B.) | pest or weed control at 62 g/ha ([4]; Solanum, pre-emergence, 62 g ai/ha, 0 to 100 scale, 0 no effect, 100 complete control, read-out: Plant response rating, Nightshade, E. B.) | pest or weed control at 31 g/ha [5, 15] | pest or weed control at 62 g/ha [5, 16] | pest or weed control at 31 g/ha [5, 17] | pest or weed control at 62 g/ha [5, 18] | pest or weed control at 31 g/ha [6, 15] | pest or weed control at 62 g/ha [6, 16] | pest or weed control at 31 g/ha [6, 17] | pest or weed control at 62 g/ha [6, 18] | plant injury at 31 g/ha (soybean (Glycine max); [15]) | plant injury at 62 g/ha (soybean (Glycine max); [16]) | plant injury at 31 g/ha (soybean (Glycine max); [17]) | plant injury at 62 g/ha (soybean (Glycine max); [18]) | pest or weed control at 31 g/ha [7, 15] | pest or weed control at 62 g/ha [7, 16] | pest or weed control at 31 g/ha [7, 17] | pest or weed control at 62 g/ha [7, 18] | plant injury at 31 g/ha ([10]; pre-emergence, Preemergence, 0 to 100 scale, 0 is no effect, 100 is complete control)
98%: pest or weed control at 62 g/ha [8, 16] | pest or weed control at 31 g/ha [8, 17] | pest or weed control at 62 g/ha [8, 18] | pest or weed control at 62 g/ha [9, 18]
95%: pest or weed control at 31 g/ha [8, 15]
20: Cupgrass, Woolly plant response rating [2, 11]
10%: plant injury at 31 g/ha ([10]; post-emergence, Postemergence, 0 to 100 scale (0 no effect, 100 complete control))
0: Plant response rating, Russian Thistle ([1]; 31 g ai/ha, scale 0 to 100 (0 no effect, 100 complete control)) | Plant response rating, Russian Thistle ([1]; 62 g ai/ha, 0 to 100 scale, 0 no effect, 100 complete control) | Russian Thistle plant response rating ([1]; 8 g ai/ha) | Russian Thistle plant response rating ([1]; 16 g ai/ha) | Kochia plant response rating (kochia (Kochia scoparia); 8 g ai/ha) | Kochia plant response rating (kochia (Kochia scoparia); 16 g ai/ha) | Plant response rating, Kochia (kochia (Kochia scoparia); 31 g ai/ha, scale 0 to 100) | Plant response rating, Kochia (kochia (Kochia scoparia); 62 g ai/ha, scale 0 to 100, 0 no effect, 100 complete control) | Cupgrass, Woolly plant response rating [2, 12] | Cupgrass, Woolly plant response rating [2, 13] | Cocklebur plant response rating [3, 11] | Cocklebur plant response rating [3, 12] | Cocklebur plant response rating [3, 13] | Nightshade, E. B. plant response rating ([4]; 8 g ai/ha) | Nightshade, E. B. plant response rating ([4]; 16 g ai/ha) | Ragweed plant response rating [5, 11] | Ragweed plant response rating [5, 14] | Ragweed plant response rating [5, 12] | Ragweed plant response rating [5, 13] | Nutsedge, Yellow plant response rating [6, 11] | Nutsedge, Yellow plant response rating [6, 14] | Nutsedge, Yellow plant response rating [6, 12] | Nutsedge, Yellow plant response rating [6, 13] | Soybean plant response rating (soybean (Glycine max); [11]) | Soybean plant response rating (soybean (Glycine max); [14]) | Soybean plant response rating (soybean (Glycine max); [12]) | Soybean plant response rating (soybean (Glycine max); [13]) | Pigweed plant response rating [7, 11] | Pigweed plant response rating [7, 14] | Pigweed plant response rating [7, 12] | Pigweed plant response rating [7, 13] | Ryegrass, Italian plant response rating [8, 12]
75%: pest or weed control at 62 g/ha ([2]; Eriochloa villosa, post-emergence, Postemergence, scale 0 to 100, 0 no effect, read-out: Plant response rating, Cupgrass, Woolly) | pest or weed control at 62 g/ha ([2]; Eriochloa villosa, pre-emergence, Preemergence, 0 to 100 scale, 0 no effect, read-out: Plant response rating, Cupgrass, Woolly) | pest or weed control at 62 g/ha [9, 16]
65: Goosegrass plant response rating [9, 13]
50: Ryegrass, Italian plant response rating [8, 14] | Goosegrass plant response rating [9, 14] | Goosegrass plant response rating [9, 12]
20%: plant injury at 125 g/ha ([10]; pre-emergence, Preemergence, 0 to 100 scale (0 no effect, 100 complete control))
60%: pest or weed control at 31 g/ha [9, 15]
